Measured values: the NIST ThermoML archive (doi:10.1021/je050389b)

Assays:
[1] = Liquid
[2] = xn = mol fraction of the nth substance listed; settings: Liquid, x2 = 0

CCCCCCCC(=O)OCC [ethyl octanoate]
[1]
Settings	mass density, 288.15 K [kg/m3]	mass density, 298.15 K [kg/m3]	mass density, 308.15 K [kg/m3]	mass density, 318.15 K [kg/m3]	viscosity, 288.15 K [mPa·s]	viscosity, 298.15 K [mPa·s]	viscosity, 308.15 K [mPa·s]	viscosity, 318.15 K [mPa·s]
100.5 kPa	–	–	–	–	1.697	1.411	1.193	1.027
101 kPa	870.79	862.15	853.52	844.87	–	–	–	–

CCO [ethanol] + CCOC(=O)Cc1ccccc1
[2]
Settings	mass density, 288.15 K [kg/m3]	mass density, 298.15 K [kg/m3]	mass density, 308.15 K [kg/m3]	mass density, 318.15 K [kg/m3]	viscosity, 288.15 K [mPa·s]	viscosity, 298.15 K [mPa·s]	viscosity, 308.15 K [mPa·s]	viscosity, 318.15 K [mPa·s]
100.5 kPa	–	–	–	–	1.337	1.105	0.921	0.771
101 kPa	793.6	785	776.31	767.44	–	–	–	–

CCO [ethanol]
[1]
Settings	mass density, 288.15 K [kg/m3]	mass density, 298.15 K [kg/m3]	mass density, 308.15 K [kg/m3]	mass density, 318.15 K [kg/m3]	viscosity, 288.15 K [mPa·s]	viscosity, 298.15 K [mPa·s]	viscosity, 308.15 K [mPa·s]	viscosity, 318.15 K [mPa·s]
100.5 kPa	793.6	785	776.31	767.44	1.337	1.105	0.921	0.771
101 kPa	793.6	785	776.31	767.44	–	–	–	–

CCOC(=O)Cc1ccccc1 [ethyl phenylacetate]
[1]
Settings	mass density, 288.15 K [kg/m3]	mass density, 298.15 K [kg/m3]	mass density, 308.15 K [kg/m3]	mass density, 318.15 K [kg/m3]	viscosity, 288.15 K [mPa·s]	viscosity, 298.15 K [mPa·s]	viscosity, 308.15 K [mPa·s]	viscosity, 318.15 K [mPa·s]
100.5 kPa	–	–	–	–	3.002	2.384	1.948	1.624
101 kPa	1036.35	1026.96	1017.6	1008.26	–	–	–	–

CCO [ethanol] + CC(=O)OCCC(C)C
[2], 100.5 kPa
Settings	mass density [kg/m3]	viscosity [mPa·s]
288.15 K	793.6	1.337
298.15 K	785	1.105
308.15 K	776.31	0.921
318.15 K	767.44	0.771

CCO [ethanol] + CCOC(=O)c1ccccc1
[2]
Settings	mass density, 288.15 K [kg/m3]	mass density, 298.15 K [kg/m3]	mass density, 308.15 K [kg/m3]	mass density, 318.15 K [kg/m3]	viscosity, 288.15 K [mPa·s]	viscosity, 298.15 K [mPa·s]	viscosity, 308.15 K [mPa·s]	viscosity, 318.15 K [mPa·s]
100.5 kPa	–	–	–	–	1.337	1.105	0.921	0.771
101 kPa	793.6	785	776.31	767.44	–	–	–	–

CCOC(=O)c1ccccc1 [ethyl benzoate]
[1]
Settings	mass density, 288.15 K [kg/m3]	mass density, 298.15 K [kg/m3]	mass density, 308.15 K [kg/m3]	mass density, 318.15 K [kg/m3]	viscosity, 288.15 K [mPa·s]	viscosity, 298.15 K [mPa·s]	viscosity, 308.15 K [mPa·s]	viscosity, 318.15 K [mPa·s]
100.5 kPa	–	–	–	–	2.444	1.971	1.624	1.368
101 kPa	1050.78	1041.42	1032.07	1022.73	–	–	–	–

CCO [ethanol] + CCCCCC(=O)OCC
[2]
Settings	mass density, 288.15 K [kg/m3]	mass density, 298.15 K [kg/m3]	mass density, 308.15 K [kg/m3]	mass density, 318.15 K [kg/m3]	viscosity, 288.15 K [mPa·s]	viscosity, 298.15 K [mPa·s]	viscosity, 308.15 K [mPa·s]	viscosity, 318.15 K [mPa·s]
100.5 kPa	–	–	–	–	1.337	1.105	0.921	0.771
101 kPa	793.6	785	776.31	767.44	–	–	–	–

CCO [ethanol] + CCCCCCCC(=O)OCC
[2]
Settings	mass density, 288.15 K [kg/m3]	mass density, 298.15 K [kg/m3]	mass density, 308.15 K [kg/m3]	mass density, 318.15 K [kg/m3]	viscosity, 288.15 K [mPa·s]	viscosity, 298.15 K [mPa·s]	viscosity, 308.15 K [mPa·s]	viscosity, 318.15 K [mPa·s]
100.5 kPa	–	–	–	–	1.337	1.105	0.921	0.771
101 kPa	793.6	785	776.31	767.44	–	–	–	–

CC(=O)OCCC(C)C [3-methylbutyl ethanoate]
[1], 100.5 kPa
Settings	mass density [kg/m3]	viscosity [mPa·s]
288.15 K	877.72	0.94
298.15 K	867.91	0.804
308.15 K	858.07	0.704
318.15 K	848.17	0.627

CCCC(=O)OCCC(C)C [3-methylbutyl butanoate]
[1]
Settings	mass density, 288.15 K [kg/m3]	mass density, 298.15 K [kg/m3]	mass density, 308.15 K [kg/m3]	mass density, 318.15 K [kg/m3]	viscosity, 288.15 K [mPa·s]	viscosity, 298.15 K [mPa·s]	viscosity, 308.15 K [mPa·s]	viscosity, 318.15 K [mPa·s]
100.5 kPa	–	–	–	–	1.317	1.111	0.952	0.827
101 kPa	867.72	858.69	849.62	840.55	–	–	–	–

CCCCCC(=O)OCC [ethyl hexanoate]
[1]
Settings	mass density, 288.15 K [kg/m3]	mass density, 298.15 K [kg/m3]	mass density, 308.15 K [kg/m3]	mass density, 318.15 K [kg/m3]	viscosity, 288.15 K [mPa·s]	viscosity, 298.15 K [mPa·s]	viscosity, 308.15 K [mPa·s]	viscosity, 318.15 K [mPa·s]
100.5 kPa	–	–	–	–	1.102	0.94	0.814	0.711
101 kPa	875.64	866.29	856.91	847.5	–	–	–	–

CCO [ethanol] + CCCC(=O)OCCC(C)C
[2]
Settings	mass density, 288.15 K [kg/m3]	mass density, 298.15 K [kg/m3]	mass density, 308.15 K [kg/m3]	mass density, 318.15 K [kg/m3]	viscosity, 288.15 K [mPa·s]	viscosity, 298.15 K [mPa·s]	viscosity, 308.15 K [mPa·s]	viscosity, 318.15 K [mPa·s]
100.5 kPa	–	–	–	–	1.337	1.105	0.921	0.771
101 kPa	793.6	785	776.31	767.44	–	–	–	–
